Bridge positions count the residues as written; N and C are the ends. Square brackets hold non-standard residues; d marks the D form. Peptide text beside a SMILES is read from it. dNMeW = CN[C@H](Cc1c[nH]c2ccccc12)C(=O)O; NMeY = CN[C@@H](Cc1ccc(O)cc1)C(=O)O; NMeF = CN[C@@H](Cc1ccccc1)C(=O)O; NMeT = CN[C@H](C(=O)O)[C@@H](C)O; NMeK = CN[C@@H](CCCCN)C(=O)O; NMeC = CN[C@@H](CS)C(=O)O
Key:
[1] = biological target: T1, hSSTR-2 (Homo sapiens, UniProt P30874); assay: Radioligand binding assay, cloned human somatostatin receptor type 2; details: CHO-K1 cell membranes, displacement of [125I]MK-678; mean ± SEM, single values = one experiment; read-out: Kd ± SEM hsst2
T1 construct: each containing the entire coding region of the full-length receptors; expressed in transfected cells
Source text: (§1) Functional Expression of the Cloned Human Somatostatin Receptors. The genomic clones containing the human somatostatin receptors (hSSTR-1 to hSSTR-5) (Yamada, Y., et al. al., Proc. Natl. Acad. Sci. USA. 1992, 89, 251-255; Yasuda, K., et al., J. Biol. Chem. 1992, 267, 20422-20428; Yamada, Y., et al., Mol. Pharmacol. 1992, 42, 2136-2142; Rohrer, L., et al., Proc. Natl. Acad. Sci. USA. 1993, 90, 4196-4200.) were kindly provided by Dr. Graeme I. Bell of the University of Chicago. The hSSTR-1, hSSTR-2, hSSTR-3, hSSTR-4 and hSSTR-5 cDNAs were isolated as a 1.5-kb PstI-XmnI fragment, 1.7-kb BamHI-HindIII fragment, 2.0-kb NcoI-HindIII fragment, 1.4-kb NheI-NdeI fragment, and a 1.2-kb HindIII-XbaI fragment, respectively, each containing the entire coding region of the full-length receptors. These fragments were independently subcloned into the corresponding restriction endonuclease sites in the mammalian expression vector pCMV5, downstream from the human cytomegalovirus (CMV) promoter, to produce the expression plasmids pCMV5/hSSTR-1, pCMV5/hSSTR-2, pCMV5/hSSTR-3, pCMV5/hSSTR-4 and pCMV5/hSSTR-5. For transfection into CHO-K1 cells, a plasmid, pRSV-neo (American Type Culture Collection, Rockville, Md.), carrying the neomycin mammalian cell selectable marker was added.
(§2) Receptor Expression and Transfection. Transfections were performed by the calcium phosphate method. CHO-K1 cells were maintained in α-minimum essential medium (α-MEM; Gibco) supplemented with 10% fetal calf serum and transfected with each of the expression plasmids using calcium phosphate precipitation. Clones that had inherited the expression plasmid were selected in α-MEM supplemented with 500 μg mL^−1 of geneticin (G418; Gibco). Independent CHO-K1 clones were picked by glass-ring cloning and expanded in culture in the selective media. Membranes were prepared from the isolated clones and hSSTR expression was initially assessed for binding with [^125I]Tyr^11-SRIF and [^125I]MK-678 (for SSTR-2).
(§3) Radioligand Binding Assays. Cell membranes of the 5 cells types were obtained from homogenates (Polytron setting 6, 15 sec) of the corresponding CHO-K1 cells, in ice-cold Tris-HCl (50 mM) and centrifuged (39000 g, 10 min×2), with an intermediate resuspension in fresh buffer. The final pellets were resuspended in Tris-HCl (10 mM) for assay. Aliquots of the membranes were incubated (30 min at 37° C.) with 0.05 nM [^125I]Tyr^11-SRIF (types 1, 3, 4, 5) or [^125I]MK-678 (type 2) in […] (pH 7.4) containing BSA (10 mg mL^−1); MgCl2 (5 mM), Trasylol (200 kIU mL^−1), bacitracin (0.02 mg mL^−1), and phenylmethanesulfonyl fluoride (0.02 mg mL^−1). The final assay volume was 0.3 mL and incubations were terminated by rapid filtration through GF/C filters pre-soaked in 0.3% poly(ethylenimine) using a Brandel rapid filtration module. Each tube and filter was then washed with aliquots of cold buffer (3×5 mL).
(§4) Specific binding is defined as the total radioligand bound minus that bound in the presence of 1.0 μM SRIF. The following total radioligand binding and non-specific binding (nsb) values were typically obtained with these assay systems: hSSTR-1, 7000 cpm total versus 3500 cpm nsb; hSSTR-2, 9000 cpm total versus 1000 cpm nsb; hSSTR-3, 8000 cpm total versus 1000 cpm nsb; hSSTR-4, 6000 cpm total versus 3500 cpm nsb; and hSSTR-5, 7500 cpm total versus 3500 cpm nsb. The binding affinities are expressed as Ki values ±SEM (nM) for each of the five receptor subtypes. Ki values derived for representative compounds of the instant invention are detailed in Table 2.
(§5) The binding affinities (Kd, nM) of all SRIF analogues were determined using their concentration-dependent displacement of ^125I-radiolabeled peptide ligands from membranes isolated from CHO cells transfected with the corresponding human somatostatin receptor.

[2] = biological target: T2, hSSTR-3 (Homo sapiens, UniProt P32745); assay: Radioligand binding assay, cloned human somatostatin receptor type 3; details: CHO-K1 cell membranes, displacement of [125I]Tyr11-SRIF; mean ± SEM, single values = one experiment; read-out: Kd ± SEM hsst3
T2 construct: each containing the entire coding region of the full-length receptors; expressed in transfected cells
Source text: as §1, §2, §3, §4, §5

[3] = biological target: T3, hSSTR-5 (Homo sapiens, UniProt P35346); assay: Radioligand binding assay, cloned human somatostatin receptor type 5; details: CHO-K1 cell membranes, displacement of [125I]Tyr11-SRIF; mean ± SEM, single values = one experiment; read-out: Kd ± SEM hsst5
T3 construct: each containing the entire coding region of the full-length receptors; expressed in transfected cells
Source text: as §1, §2, §3, §4, §5

[4] = biological target: T4, hSSTR-4 (Homo sapiens, UniProt P31391); assay: Radioligand binding assay, cloned human somatostatin receptor type 4; details: CHO-K1 cell membranes, displacement of [125I]Tyr11-SRIF; mean ± SEM, single values = one experiment; read-out: Kd ± SEM hsst4
T4 construct: each containing the entire coding region of the full-length receptors; expressed in transfected cells
Source text: as §1, §2, §3, §4, §5

[5] = biological target: T5, hSSTR-1 (Homo sapiens, UniProt P30872); assay: Radioligand binding assay, cloned human somatostatin receptor type 1; details: CHO-K1 cell membranes, displacement of [125I]Tyr11-SRIF; mean ± SEM, single values = one experiment; read-out: Kd ± SEM hsst1
T5 construct: each containing the entire coding region of the full-length receptors; expressed in transfected cells
Source text: as §1, §2, §3, §4, §5

T4 sequence (P31391 whole entry): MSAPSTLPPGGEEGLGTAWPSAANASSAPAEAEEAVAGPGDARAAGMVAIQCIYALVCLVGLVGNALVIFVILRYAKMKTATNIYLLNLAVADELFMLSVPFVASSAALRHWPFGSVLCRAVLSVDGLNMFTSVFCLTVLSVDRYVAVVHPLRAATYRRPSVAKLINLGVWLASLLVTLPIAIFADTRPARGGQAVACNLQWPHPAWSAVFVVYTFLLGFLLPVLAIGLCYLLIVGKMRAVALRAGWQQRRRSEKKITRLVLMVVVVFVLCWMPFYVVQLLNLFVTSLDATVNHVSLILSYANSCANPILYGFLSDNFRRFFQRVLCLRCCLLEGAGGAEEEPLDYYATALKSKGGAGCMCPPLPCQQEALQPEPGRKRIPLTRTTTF
T1 sequence (P30874 whole entry): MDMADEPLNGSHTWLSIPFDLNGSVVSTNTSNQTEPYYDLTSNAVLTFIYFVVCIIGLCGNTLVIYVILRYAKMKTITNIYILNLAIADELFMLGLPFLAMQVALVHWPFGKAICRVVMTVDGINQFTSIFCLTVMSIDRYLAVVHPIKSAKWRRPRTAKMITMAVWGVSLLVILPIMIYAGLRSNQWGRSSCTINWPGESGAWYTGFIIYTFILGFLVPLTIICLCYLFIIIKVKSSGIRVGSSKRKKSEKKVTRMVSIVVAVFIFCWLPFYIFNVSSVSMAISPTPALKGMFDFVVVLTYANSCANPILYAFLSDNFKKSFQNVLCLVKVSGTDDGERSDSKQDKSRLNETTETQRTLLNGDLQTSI
T5 sequence (P30872 whole entry): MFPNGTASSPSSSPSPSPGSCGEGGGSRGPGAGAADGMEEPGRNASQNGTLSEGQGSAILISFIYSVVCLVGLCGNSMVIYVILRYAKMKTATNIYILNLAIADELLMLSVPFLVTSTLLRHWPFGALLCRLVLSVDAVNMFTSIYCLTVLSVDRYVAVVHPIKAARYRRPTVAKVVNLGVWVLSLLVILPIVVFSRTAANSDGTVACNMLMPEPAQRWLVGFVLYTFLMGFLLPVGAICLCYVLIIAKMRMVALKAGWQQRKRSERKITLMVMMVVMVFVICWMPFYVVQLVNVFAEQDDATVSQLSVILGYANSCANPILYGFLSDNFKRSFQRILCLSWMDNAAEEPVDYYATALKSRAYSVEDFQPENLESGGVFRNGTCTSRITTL
T2 sequence (P32745 whole entry): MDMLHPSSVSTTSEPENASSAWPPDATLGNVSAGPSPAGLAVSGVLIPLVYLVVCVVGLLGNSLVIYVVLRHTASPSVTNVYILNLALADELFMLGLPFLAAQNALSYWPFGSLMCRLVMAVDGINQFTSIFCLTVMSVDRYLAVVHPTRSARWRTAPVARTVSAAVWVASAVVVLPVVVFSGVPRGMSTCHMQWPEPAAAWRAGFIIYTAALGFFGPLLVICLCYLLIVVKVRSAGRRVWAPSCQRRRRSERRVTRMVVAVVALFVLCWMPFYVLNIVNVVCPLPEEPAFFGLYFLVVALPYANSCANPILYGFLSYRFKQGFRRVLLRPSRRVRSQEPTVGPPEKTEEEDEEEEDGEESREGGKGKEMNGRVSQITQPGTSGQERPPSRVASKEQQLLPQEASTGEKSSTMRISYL
T3 sequence (P35346 whole entry): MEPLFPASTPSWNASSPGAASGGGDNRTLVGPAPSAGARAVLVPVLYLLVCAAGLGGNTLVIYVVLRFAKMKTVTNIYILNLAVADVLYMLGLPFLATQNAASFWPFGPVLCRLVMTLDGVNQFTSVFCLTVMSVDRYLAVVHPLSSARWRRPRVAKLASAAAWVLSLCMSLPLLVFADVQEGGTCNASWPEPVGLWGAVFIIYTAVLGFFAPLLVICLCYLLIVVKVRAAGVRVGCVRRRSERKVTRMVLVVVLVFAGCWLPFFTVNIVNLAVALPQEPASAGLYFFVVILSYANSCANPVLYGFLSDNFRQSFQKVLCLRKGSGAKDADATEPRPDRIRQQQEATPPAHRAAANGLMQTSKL

Compound	Kd [1] [nM]	Kd [2] [nM]	Kd [3] [nM]	Kd [4] [nM]	Kd [5] [nM]
C[C@@H](O)[C@H](NC(=O)[C@@H]1CSSC[C@H](N(C)C(=O)[C@@H](N)Cc2ccc(O)cc2)C(=O)N[C@@H](Cc2ccccc2)C(=O)N[C@H](Cc2c[nH]c3ccccc23)C(=O)N[C@@H](CCCCN)C(=O)N[C@@H]([C@@H](C)O)C(=O)N1)C(N)=O [Example 11, Tyr-cyclo(NMeCys-Phe-DTrp-Lys-Thr-Cys)-Thr-NH2] (H-Y[NMeC]F[dW]KTCT-NH2; disulfide 2-7; N-terminus assumed)	8.96 ± 1.66	2.73 ± 2.43	114		
C[C@@H](O)[C@@H]1NC(=O)[C@H](CCCCN)NC(=O)[C@@H](Cc2c[nH]c3ccccc23)NC(=O)[C@H](Cc2ccccc2)NC(=O)[C@@H](NC(=O)[C@H](N)Cc2ccccc2)CSSC[C@@H](C(=O)N(C)[C@H](C(N)=O)[C@@H](C)O)NC1=O [Example 8, DPhe-cyclo(Cys-Phe-DTrp-Lys-Thr-Cys)-NMeThr-NH2]	14.8 ± 1.53	124 ± 11.7		182	> 1000
C[C@@H](O)[C@H](NC(=O)[C@@H]1CSSC[C@H](NC(=O)[C@H](N)Cc2ccccc2)C(=O)N[C@@H](Cc2ccccc2)C(=O)N[C@H](Cc2c[nH]c3ccccc23)C(=O)N(C)[C@@H](CCCCN)C(=O)N[C@@H]([C@@H](C)O)C(=O)N1)C(N)=O [Example 5, DPhe-cyclo(Cys-Phe-DTrp-NMeLys-Thr-Cys)-Thr-NH2]	1.84 ± 0.21			> 1000	
C[C@@H](O)[C@H](NC(=O)[C@@H]1CSSC[C@H](NC(=O)[C@H](N)Cc2ccccc2)C(=O)N(C)[C@@H](Cc2ccccc2)C(=O)N[C@H](Cc2c[nH]c3ccccc23)C(=O)N[C@@H](CCCCN)C(=O)N[C@@H]([C@@H](C)O)C(=O)N1)C(N)=O [Example 3, DPhe-cyclo(Cys-NMePhe-DTrp-Lys-Thr-Cys)-Thr-NH2]	13.2 ± 3.85	830 ± 86		> 1000	> 1000
C[C@@H](O)[C@@H]1NC(=O)[C@H](CCCCN)NC(=O)[C@@H](Cc2c[nH]c3ccccc23)NC(=O)[C@H](Cc2ccccc2)NC(=O)[C@@H](NC(=O)[C@@H](N)Cc2ccc(O)cc2)CSSC[C@@H](C(=O)N(C)[C@H](C(N)=O)[C@@H](C)O)NC1=O [Example 17, Tyr-cyclo(Cys-Phe-DTrp-Lys-Thr-Cys)-NMeThr-NH2] (H-YCF[dW]KTC[NMeT]-NH2; disulfide 2-7; N-terminus assumed)	26.2 ± 10.3	535 ± 200		353	611 ± 3.5
C[C@@H](O)[C@H](NC(=O)[C@@H]1CSSC[C@H](NC(=O)[C@@H](N)Cc2ccc(O)cc2)C(=O)N[C@@H](Cc2ccccc2)C(=O)N[C@H](Cc2c[nH]c3ccccc23)C(=O)N[C@@H](CCCCN)C(=O)N[C@@H]([C@@H](C)O)C(=O)N1C)C(N)=O [Example 16, Tyr-cyclo(Cys-Phe-DTrp-Lys-Thr-NMeCys)-Thr-NH2] (H-YCF[dW]KT[NMeC]T-NH2; disulfide 2-7; N-terminus assumed)				321	1260
C[C@@H](O)[C@H](NC(=O)[C@@H]1CSSC[C@H](NC(=O)[C@@H](N)Cc2ccc(O)cc2)C(=O)N(C)[C@@H](Cc2ccccc2)C(=O)N[C@H](Cc2c[nH]c3ccccc23)C(=O)N[C@@H](CCCCN)C(=O)N[C@@H]([C@@H](C)O)C(=O)N1)C(N)=O [Example 12, Tyr-cyclo(Cys-NMePhe-DTrp-Lys-Thr-Cys)-Thr-NH2] (H-YC[NMeF][dW]KTCT-NH2; disulfide 2-7; N-terminus assumed)		94.2 ± 16.7			653 ± 245
CN[C@H](Cc1ccccc1)C(=O)N[C@H]1CSSC[C@@H](C(=O)N[C@H](C(N)=O)[C@@H](C)O)NC(=O)[C@H]([C@@H](C)O)NC(=O)[C@H](CCCCN)NC(=O)[C@@H](Cc2c[nH]c3ccccc23)NC(=O)[C@H](Cc2ccccc2)NC1=O [Example 1, NMeDPhe-cyclo(Cys-Phe-DTrp-Lys-Thr-Cys)-Thr-NH2]	1.03 ± 0.26	17.9 ± 2.5	4.89 ± 1.4		316 ± 11
C[C@@H](O)[C@H](NC(=O)[C@@H]1CSSC[C@H](NC(=O)[C@@H](N)Cc2ccc(O)cc2)C(=O)N[C@@H](Cc2ccccc2)C(=O)N(C)[C@H](Cc2c[nH]c3ccccc23)C(=O)N[C@@H](CCCCN)C(=O)N[C@@H]([C@@H](C)O)C(=O)N1)C(N)=O [Example 13, Tyr-cyclo(Cys-Phe-NMeDTrp-Lys-Thr-Cys)-Thr-NH2] (H-YCF[dNMeW]KTCT-NH2; disulfide 2-7; N-terminus assumed)	120 ± 22.2				1000
C[C@@H](O)[C@H](NC(=O)[C@@H]1CSSC[C@H](NC(=O)[C@H](N)Cc2ccccc2)C(=O)N[C@@H](Cc2ccccc2)C(=O)N[C@H](Cc2c[nH]c3ccccc23)C(=O)N[C@@H](CCCCN)C(=O)N[C@@H]([C@@H](C)O)C(=O)N1)C(N)=O [Example 9, DPhe-cyclo(Cys-Phe-DTrp-Lys-Thr-Cys)-Thr-NH2]	0.15 ± 0.08	11.8 ± 0.9		> 1000	761
C[C@@H](O)[C@H](NC(=O)[C@@H]1CSSC[C@H](NC(=O)[C@@H](N)Cc2ccc(O)cc2)C(=O)N[C@@H](Cc2ccccc2)C(=O)N[C@H](Cc2c[nH]c3ccccc23)C(=O)N[C@@H](CCCCN)C(=O)N[C@@H]([C@@H](C)O)C(=O)N1)C(N)=O [Example 18, Tyr-cyclo(Cys-Phe-DTrp-Lys-Thr-Cys)-Thr-NH2] (H-YCF[dW]KTCT-NH2; disulfide 2-7; N-terminus assumed)	10.3 ± 3.53	18.2 ± 4.21			1000
CN[C@@H](Cc1ccc(O)cc1)C(=O)N[C@H]1CSSC[C@@H](C(=O)N[C@H](C(N)=O)[C@@H](C)O)NC(=O)[C@H]([C@@H](C)O)NC(=O)[C@H](CCCCN)NC(=O)[C@@H](Cc2c[nH]c3ccccc23)NC(=O)[C@H](Cc2ccccc2)NC1=O [Example 10, NMeTyr-cyclo(Cys-Phe-DTrp-Lys-Thr-Cys)-Thr-NH2] (H-[NMeY]CF[dW]KTCT-NH2; disulfide 2-7; N-terminus assumed)	9.74 ± 1.87				811 ± 188
C[C@@H](O)[C@H](NC(=O)[C@@H]1CSSC[C@H](NC(=O)[C@@H](N)Cc2ccc(O)cc2)C(=O)N[C@@H](Cc2ccccc2)C(=O)N[C@H](Cc2c[nH]c3ccccc23)C(=O)N(C)[C@@H](CCCCN)C(=O)N[C@@H]([C@@H](C)O)C(=O)N1)C(N)=O [Example 14, Tyr-cyclo(Cys-Phe-DTrp-NMeLys-Thr-Cys)-Thr-NH2] (H-YCF[dW][NMeK]TCT-NH2; disulfide 2-7; N-terminus assumed)	14.2 ± 3.12	51 ± 6.93			956 ± 43

From patent publication US20080090756A1, “Somatostatin agonists” (The Administrators of the Tulane Educational Fund, priority 2001, published 2008)
